Laboratory results reported in ChEMBL document CHEMBL1201862, “PubChem BioAssay data set” (2004).
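96-well plates; 48 h exposure; 5 concentrations. Endpoints by linear interpolation between flanking doses. Not reached: highest tested concentration assigned. GI50 is the concentration that inhibits growth by half.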 Active and inactive are the calls of the source. Rule as the data show it: active = GI50 up to about 1.1 µM and inactive = higher.

How the values were obtained:
Experiment in all cases: growth of human tumour cells (NCI), 48 h
[1] = system: A549
[2] = system: DU-145
[3] = system: EKVX
[4] = system: HCT-116
[5] = system: Hs-578T
[6] = system: MDA-MB-231
[7] = system: MOLT-4
[8] = system: NCI-H23
[9] = system: NCI-H522
[10] = system: OVCAR-4
[11] = system: OVCAR-5
[12] = system: PC-3
[13] = system: RXF 393
[14] = system: SF-295
[15] = system: SK-MEL-2
[16] = system: SNB-19
[17] = system: T47D
[18] = system: UACC-257
[19] = system: UO-31
[20] = system: HCC 2998

SMILES	GI50 [1]	GI50 [2]	GI50 [3]	GI50 [4]	GI50 [5]	GI50 [6]	GI50 [7]	GI50 [8]	GI50 [9]	GI50 [10]	GI50 [11]	GI50 [12]	GI50 [13]	GI50 [14]	GI50 [15]	GI50 [16]	GI50 [17]	GI50 [18]	GI50 [19]	GI50 [20]
O=C1/C(=N/N=C(c2ccccc2)c2ccccc2)c2ccccc2-c2ccccc21	> 100 µM (inactive)	> 100 µM (inactive)	> 100 µM (inactive)	52.1 µM (inactive)	29.6 µM (inactive)	31.6 µM (inactive)	22.5 µM (inactive)	74 µM (inactive)	54.8 µM (inactive)	77.3 µM (inactive)	> 100 µM (inactive)	64 µM (inactive)	> 100 µM (inactive)	64 µM (inactive)	> 100 µM (inactive)	> 100 µM (inactive)	32.8 µM (inactive)	> 100 µM (inactive)	45.5 µM (inactive)	
CN(C(=O)C1=CCCCCC1)c1ccccc1I	62.1 µM (inactive)	50.7 µM (inactive)	28.4 µM (inactive)	25.9 µM (inactive)	1.27 µM (inactive)	67.8 µM (inactive)	49.3 µM (inactive)	38.2 µM (inactive)		18.2 µM (inactive)	> 100 µM (inactive)	35 µM (inactive)	> 100 µM (inactive)	44.9 µM (inactive)	32.4 µM (inactive)	62.5 µM (inactive)	23.7 µM (inactive)	44.6 µM (inactive)	41.4 µM (inactive)	45.9 µM (inactive)
CONC(C)=O	> 100 µM (inactive)	> 100 µM (inactive)	> 100 µM (inactive)	> 100 µM (inactive)	> 100 µM (inactive)	> 100 µM (inactive)	> 100 µM (inactive)	> 100 µM (inactive)	> 100 µM (inactive)		> 100 µM (inactive)	> 100 µM (inactive)		> 100 µM (inactive)	> 100 µM (inactive)	> 100 µM (inactive)	> 100 µM (inactive)	> 100 µM (inactive)	> 100 µM (inactive)	> 100 µM (inactive)
O=C(CSCC(=O)N/N=C/c1ccccc1)N/N=C\c1ccccc1	> 100 µM (inactive)	> 100 µM (inactive)	> 100 µM (inactive)	> 100 µM (inactive)	> 100 µM (inactive)	> 100 µM (inactive)	68.2 µM (inactive)	> 100 µM (inactive)	> 100 µM (inactive)	> 100 µM (inactive)	> 100 µM (inactive)	> 100 µM (inactive)	65.8 µM (inactive)	> 100 µM (inactive)	> 100 µM (inactive)	> 100 µM (inactive)	77.6 µM (inactive)	> 100 µM (inactive)	> 100 µM (inactive)	
c1ccc(-c2ccc(-c3cc4ccccc4[nH]3)cc2)cc1	> 100 µM (inactive)	> 100 µM (inactive)	> 100 µM (inactive)	> 100 µM (inactive)	> 100 µM (inactive)	> 100 µM (inactive)	> 100 µM (inactive)	> 100 µM (inactive)	60.3 µM (inactive)	> 100 µM (inactive)	> 100 µM (inactive)	> 100 µM (inactive)		> 100 µM (inactive)	> 100 µM (inactive)	> 100 µM (inactive)	> 100 µM (inactive)	> 100 µM (inactive)	> 100 µM (inactive)	> 100 µM (inactive)
C[C@@H](CO)C1=C(O)C(=O)c2c(ccc3c2CCCC3(C)C)C1=O	32.1 µM (inactive)	47 µM (inactive)	33.5 µM (inactive)	45.5 µM (inactive)	51.2 µM (inactive)	61.4 µM (inactive)	42.1 µM (inactive)	22.1 µM (inactive)	15.5 µM (inactive)	46.7 µM (inactive)	36.6 µM (inactive)	31.8 µM (inactive)	43.8 µM (inactive)	30.4 µM (inactive)	23.2 µM (inactive)	25.7 µM (inactive)	50.6 µM (inactive)	32.1 µM (inactive)	33.3 µM (inactive)	
Cc1cc(NS(=O)(=O)c2ccc(Nc3c4ccccc4nc4c(C(=O)NCCO)cccc34)cc2)no1	37.3 µM (inactive)	34.7 µM (inactive)	60 µM (inactive)		21.2 µM (inactive)	17.9 µM (inactive)	7.41 µM (inactive)	39.2 µM (inactive)	11.4 µM (inactive)	29 µM (inactive)	13.3 µM (inactive)	39.2 µM (inactive)		38.7 µM (inactive)	22.2 µM (inactive)	37.4 µM (inactive)	19.7 µM (inactive)	75.3 µM (inactive)	25.2 µM (inactive)	40.7 µM (inactive)
O=C(O)CCCc1ccc2ccc3ccccc3c2c1	61 µM (inactive)	> 100 µM (inactive)	> 100 µM (inactive)	89.1 µM (inactive)	38.8 µM (inactive)	73.1 µM (inactive)	65.5 µM (inactive)	> 100 µM (inactive)	39.6 µM (inactive)	> 100 µM (inactive)	73.5 µM (inactive)	34.8 µM (inactive)	15.3 µM (inactive)	21.8 µM (inactive)	26.7 µM (inactive)	> 100 µM (inactive)	52.8 µM (inactive)	56.2 µM (inactive)	88.1 µM (inactive)	
Cn1c(=O)c2c(nc(C(=N)SCC(=O)O)n2C)n(C)c1=O	39.5 µM (inactive)	61.2 µM (inactive)	29.1 µM (inactive)	26.5 µM (inactive)	97.7 µM (inactive)	> 100 µM (inactive)	22.2 µM (inactive)	27.7 µM (inactive)	41.9 µM (inactive)	24.4 µM (inactive)	47.5 µM (inactive)	48.4 µM (inactive)	53.1 µM (inactive)	52.7 µM (inactive)	39.2 µM (inactive)	52.7 µM (inactive)	33.2 µM (inactive)	29.1 µM (inactive)	41.8 µM (inactive)	
O=c1cc(-c2ccccc2)[nH]c2cccc(S)c12	0.44 µM (active)	0.393 µM (active)	> 100 µM (inactive)	0.0867 µM (active)	0.205 µM (active)	0.455 µM (active)	0.37 µM (active)	0.445 µM (active)	0.0782 µM (active)	4.8 µM (inactive)	> 100 µM (inactive)	0.123 µM (active)	0.164 µM (active)	0.115 µM (active)		0.375 µM (active)	8.32 µM (inactive)	0.0762 µM (active)		0.344 µM (active)
O=C1NC(=O)/C(=C/c2ccc(S(=O)(=O)N/N=C\C(O)C(O)C(O)C(O)CO)cc2)N1 (stereo not given)	> 100 µM (inactive)	> 100 µM (inactive)	> 100 µM (inactive)	> 100 µM (inactive)	> 100 µM (inactive)	> 100 µM (inactive)	> 100 µM (inactive)	> 100 µM (inactive)		> 100 µM (inactive)	> 100 µM (inactive)	> 100 µM (inactive)	> 100 µM (inactive)	> 100 µM (inactive)	> 100 µM (inactive)	> 100 µM (inactive)	> 100 µM (inactive)	> 100 µM (inactive)	> 100 µM (inactive)	> 100 µM (inactive)
CC1(C)OC[C@@H](O)[C@H](Br)CO1		> 100 µM (inactive)	> 100 µM (inactive)	> 100 µM (inactive)	68.2 µM (inactive)	> 100 µM (inactive)	65.8 µM (inactive)	> 100 µM (inactive)		> 100 µM (inactive)	> 100 µM (inactive)	> 100 µM (inactive)	> 100 µM (inactive)	> 100 µM (inactive)	> 100 µM (inactive)	> 100 µM (inactive)	> 100 µM (inactive)	> 100 µM (inactive)	> 100 µM (inactive)	> 100 µM (inactive)
Cc1ccc2c(=O)c(C(=O)Nn3c(C)csc3=S)c[nH]c2n1	> 100 µM (inactive)	> 100 µM (inactive)	> 100 µM (inactive)	> 100 µM (inactive)	> 100 µM (inactive)	> 100 µM (inactive)	> 100 µM (inactive)	> 100 µM (inactive)	> 100 µM (inactive)	> 100 µM (inactive)	> 100 µM (inactive)	> 100 µM (inactive)	> 100 µM (inactive)	> 100 µM (inactive)	> 100 µM (inactive)	> 100 µM (inactive)	> 100 µM (inactive)	> 100 µM (inactive)	> 100 µM (inactive)	
C#CCOC(=O)C(=[N+]=[N-])C(=O)CC(C)C	> 10 µM (inactive)	> 10 µM (inactive)	> 10 µM (inactive)	> 10 µM (inactive)	> 10 µM (inactive)	> 10 µM (inactive)	> 10 µM (inactive)	> 10 µM (inactive)		> 10 µM (inactive)	> 10 µM (inactive)	> 10 µM (inactive)	> 10 µM (inactive)	> 10 µM (inactive)	> 10 µM (inactive)	> 10 µM (inactive)	> 10 µM (inactive)	> 10 µM (inactive)	> 10 µM (inactive)	> 10 µM (inactive)
COC(=O)[C@@]1(Cc2ccc(OC(C)=O)cc2)Cc2cc3ccccc3n2N1	47.2 µM (inactive)	62.4 µM (inactive)	23.8 µM (inactive)	35 µM (inactive)	82.8 µM (inactive)	29.2 µM (inactive)	26.8 µM (inactive)	25.3 µM (inactive)	24 µM (inactive)	75.5 µM (inactive)	94.4 µM (inactive)	30 µM (inactive)		46.8 µM (inactive)	18.2 µM (inactive)	93.8 µM (inactive)	24.8 µM (inactive)	17.3 µM (inactive)	50.7 µM (inactive)	
